From patent US9422267B2, “Fused pyrimidine compounds and use thereof” (Medivation Technologies, Inc., priority 2012, dated 2016)
Several values for one entry are separate records, joined by “and”; a condition that tells them apart may be missing. Identical values can stand only once. Like-named read-outs stand apart in the source and are kept apart here. Blank lines part the entries; values can stand above or below the compound they belong to.

Tests used:
IR = target: T1, IR (Homo sapiens, UniProt P06213); experiment: In vitro IR enzymatic assay (ADP-Glo kinase assay); type: biochemical
T1 construct: purchased Millipore 14-803
Experimental: (§1) IC50 values of the compounds of the invention against IGF-1R and IR were measured in vitro using an ADP-Glo kinase assay Kit (Promega). […] Kinase reactions in both assays were conducted at 30° C. for 20 min with increasing concentrations of compounds of the invention.

HT-29 = experiment: Cell Titer-Glo cell viability: HT-29; type: cell-based; details: Homo sapiens, HT-29, 72 h
Experimental: (§2) This assay quantitates the ATP present in order to determine the number of viable cells in culture. Briefly, the compounds were incubated with the cells for 72 h, followed by cell lysis. The resulting luminescent signal is proportional to the amount of ATP present and, therefore, directly proportional to the number of cells present in culture.
(§3) Compound nos. […] These cell lines are derived from human lung carcinoma, colon adenocarcinoma, colon adenocarcinoma, colon carcinoma, acute promyelocytic leukemia, colon adenocarcinoma, colon adenocarcinoma (from metastatic site lymph node), respectively.
(§4) Compounds 2b, 5, 6b and 10a were tested along with derivatives in viability assays as described above by Caliper LifeSciences Systems (Hanover, Md.), in A549, HCT-15, HCT-116, MCF-7, MDA-MB-231, OVCAR3, T47D, COLO205, HT-29, BT-20, HCC1187, HL-60, MDA-MB-175, SW-620, and UACC812 cells.

A549 = experiment: Cell Titer-Glo cell viability: A549; type: cell-based; details: Homo sapiens, A549, 72 h, A549, non-small lung carcinoma
Experimental: as §2, §3, §4

COLO 205 = experiment: Cell Titer-Glo cell viability: COLO 205; type: cell-based; details: Homo sapiens, COLO 205, 72 h
Experimental: as §2, §3, §4

HCT-116 = experiment: Cell Titer-Glo cell viability: HCT-116; type: cell-based; details: Homo sapiens, HCT116, colon carcinoma, 72 h incubation, Cell Titer-Glo
Experimental: as §2, §3, §4

SW-620 = experiment: Cell Titer-Glo cell viability: SW-620; type: cell-based; details: Homo sapiens, SW-620, 72 h, SW-620, metastatic colorectal cancer
Experimental: as §2, §3, §4

BT-20 = experiment: Cell Titer-Glo cell viability: BT-20; type: cell-based; details: Homo sapiens; BT-20, breast cancer; 72 h incubation, Cell Titer-Glo
Experimental: (§5) Compound nos. […] This panel of cell lines includes an ER− breast carcinoma, primary breast ductal carcinoma, prostate adenocarcinoma, mammary adenocarcinoma, mammary ductal carcinoma, mammary ductal carcinoma, ovary adenocarcinoma, ER+ breast carcinoma, ER-HER2+ mammary ductal carcinoma and an ER+ mammary ductal carcinoma, respectively.
as §2, §4

LNCaP = experiment: Cell Titer-Glo cell viability: LNCaP; type: cell-based; details: Homo sapiens, Prostate cancer, 72 h incubation, Cell Titer-Glo
Experimental: as §5, §2

MCF-7 = experiment: Cell Titer-Glo cell viability: MCF-7; type: cell-based; details: Homo sapiens; MCF7, breast cancer; 72 h incubation, Cell Titer-Glo
Experimental: as §5, §2, §4

MDA MB 175 = experiment: Cell Titer-Glo cell viability: MDA MB 175; type: cell-based; details: MDA-MB-175, breast cancer; 72 h incubation, Cell Titer-Glo
Experimental: as §5, §2, §4
The inhibitory effects of Compound 8a were tested in two cell lines.

MDA MB 231 = experiment: Cell Titer-Glo cell viability: MDA MB 231; type: cell-based; details: Homo sapiens, MDAMB231, breast cancer, 72 h incubation, Cell Titer-Glo
Experimental: as §5, §2, §4

OVCAR-3 = experiment: Cell Titer-Glo cell viability: OVCAR-3; type: cell-based; details: Homo sapiens, OVCAR3, ovarian cancer, 72 h incubation, Cell Titer-Glo
Experimental: as §5, §2, §4

IGF1R = IGF1R (Homo sapiens, UniProt P08069); experiment: In vitro IGF-1R enzymatic assay (ADP-Glo kinase assay); type: biochemical; set-up: purchased Millipore 14-802
Experimental: as §1

AXL = target: T2, AXL (Homo sapiens, UniProt P30530); experiment: Caliper kinase profiling: AXL
T2 sequence (P30530 26-894): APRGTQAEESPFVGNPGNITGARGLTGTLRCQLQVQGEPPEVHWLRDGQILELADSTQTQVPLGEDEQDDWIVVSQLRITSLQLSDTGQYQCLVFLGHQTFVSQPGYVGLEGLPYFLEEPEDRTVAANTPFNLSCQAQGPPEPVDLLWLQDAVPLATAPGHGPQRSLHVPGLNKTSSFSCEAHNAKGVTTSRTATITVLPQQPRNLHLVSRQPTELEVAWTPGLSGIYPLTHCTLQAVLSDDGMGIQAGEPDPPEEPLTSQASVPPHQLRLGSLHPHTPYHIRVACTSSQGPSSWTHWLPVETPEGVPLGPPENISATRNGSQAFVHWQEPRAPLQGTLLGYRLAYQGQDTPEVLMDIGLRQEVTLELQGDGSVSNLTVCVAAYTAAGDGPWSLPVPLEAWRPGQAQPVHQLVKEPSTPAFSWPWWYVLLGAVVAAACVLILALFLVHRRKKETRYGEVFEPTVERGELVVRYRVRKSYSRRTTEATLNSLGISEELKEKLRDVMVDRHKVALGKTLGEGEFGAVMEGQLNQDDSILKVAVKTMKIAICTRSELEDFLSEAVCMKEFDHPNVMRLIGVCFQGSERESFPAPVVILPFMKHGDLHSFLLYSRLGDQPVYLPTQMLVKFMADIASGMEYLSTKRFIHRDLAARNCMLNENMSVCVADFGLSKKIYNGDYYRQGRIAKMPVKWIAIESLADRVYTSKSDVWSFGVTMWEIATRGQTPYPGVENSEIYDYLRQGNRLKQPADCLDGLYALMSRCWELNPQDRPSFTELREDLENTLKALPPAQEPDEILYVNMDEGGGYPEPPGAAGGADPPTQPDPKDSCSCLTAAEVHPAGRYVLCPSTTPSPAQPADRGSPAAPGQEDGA
Experimental: (§6) The compound was tested at concentrations of 1.0×10^−8 and 1.0×10^−9 M in the RapidKinase192™ panel in duplicate. […] The screening was performed using the Caliper EZReader2, a 4-sipper LabChip, and ProfilerPro Kinase Selectivity Assay Kits 1 and 2. The assay measures the conversion of a fluorescent peptide substrate to a phosphorylated product. Briefly, the reaction mixture was introduced through a capillary sipper onto the microfluidic chip, where the substrate and product were electrophoretically separated and detected by laser-induced fluorescence. The time-dependent fluorescence signal indicates the extent of the reaction.
(§7) The kinases tested were AurA, AurB, AurC, AXL, FAK2, IGF1R, InsR, Mer, MET, TrkB and TrkC.
(§8) The assays were conducted using the Caliper LabChip 3000 and a 12-sipper LabChip as described above.

FAK2(PTK2b) = FAK2(PTK2b) (Homo sapiens, UniProt Q14289); experiment: Caliper kinase assay: FAK2(PTK2b); details: 0.01 μM
NTRK2 (TRKB) = NTRK2 (TRKB) (Homo sapiens, UniProt Q16620); experiment: Caliper kinase profiling: NTRK2 (TRKB)
Experimental: as §6, §7, §8

TRKC (NTRK3) = TRKC (NTRK3) (Homo sapiens, UniProt Q16288); experiment: Caliper kinase profiling: TRKC (NTRK3)
[1] = 72 h incubation, Cell Titer-Glo
[2] = COLO205, colon cancer, 72 h incubation, Cell Titer-Glo
[3] = activated IGF-1R, read-out: IC50
[4] = read-out: Average % Inh @ 10 nM
[5] = read-out: Average % Inh @ 100 nM

Sequence of NTRK2 (TRKB) (Q16620 32-822): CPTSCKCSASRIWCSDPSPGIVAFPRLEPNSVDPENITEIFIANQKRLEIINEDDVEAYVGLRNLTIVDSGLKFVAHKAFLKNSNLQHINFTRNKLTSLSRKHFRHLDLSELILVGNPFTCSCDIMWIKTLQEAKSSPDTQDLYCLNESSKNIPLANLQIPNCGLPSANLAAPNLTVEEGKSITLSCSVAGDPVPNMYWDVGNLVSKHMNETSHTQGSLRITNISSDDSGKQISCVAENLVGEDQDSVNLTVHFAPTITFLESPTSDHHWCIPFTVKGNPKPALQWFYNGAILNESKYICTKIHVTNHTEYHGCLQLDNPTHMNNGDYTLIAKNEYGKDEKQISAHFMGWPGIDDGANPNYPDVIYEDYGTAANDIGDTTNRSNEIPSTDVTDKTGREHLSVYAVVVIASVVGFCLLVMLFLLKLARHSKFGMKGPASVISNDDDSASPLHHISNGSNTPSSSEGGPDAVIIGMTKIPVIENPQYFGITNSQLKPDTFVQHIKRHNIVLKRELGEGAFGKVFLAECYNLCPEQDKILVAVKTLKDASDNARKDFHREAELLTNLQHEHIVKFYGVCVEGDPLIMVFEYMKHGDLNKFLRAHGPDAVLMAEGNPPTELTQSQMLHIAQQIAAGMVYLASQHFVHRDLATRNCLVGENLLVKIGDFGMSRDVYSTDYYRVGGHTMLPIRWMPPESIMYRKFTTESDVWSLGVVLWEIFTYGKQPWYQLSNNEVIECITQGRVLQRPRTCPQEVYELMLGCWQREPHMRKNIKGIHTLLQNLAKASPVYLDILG
Sequence of IGF1R (P08069 31-1367): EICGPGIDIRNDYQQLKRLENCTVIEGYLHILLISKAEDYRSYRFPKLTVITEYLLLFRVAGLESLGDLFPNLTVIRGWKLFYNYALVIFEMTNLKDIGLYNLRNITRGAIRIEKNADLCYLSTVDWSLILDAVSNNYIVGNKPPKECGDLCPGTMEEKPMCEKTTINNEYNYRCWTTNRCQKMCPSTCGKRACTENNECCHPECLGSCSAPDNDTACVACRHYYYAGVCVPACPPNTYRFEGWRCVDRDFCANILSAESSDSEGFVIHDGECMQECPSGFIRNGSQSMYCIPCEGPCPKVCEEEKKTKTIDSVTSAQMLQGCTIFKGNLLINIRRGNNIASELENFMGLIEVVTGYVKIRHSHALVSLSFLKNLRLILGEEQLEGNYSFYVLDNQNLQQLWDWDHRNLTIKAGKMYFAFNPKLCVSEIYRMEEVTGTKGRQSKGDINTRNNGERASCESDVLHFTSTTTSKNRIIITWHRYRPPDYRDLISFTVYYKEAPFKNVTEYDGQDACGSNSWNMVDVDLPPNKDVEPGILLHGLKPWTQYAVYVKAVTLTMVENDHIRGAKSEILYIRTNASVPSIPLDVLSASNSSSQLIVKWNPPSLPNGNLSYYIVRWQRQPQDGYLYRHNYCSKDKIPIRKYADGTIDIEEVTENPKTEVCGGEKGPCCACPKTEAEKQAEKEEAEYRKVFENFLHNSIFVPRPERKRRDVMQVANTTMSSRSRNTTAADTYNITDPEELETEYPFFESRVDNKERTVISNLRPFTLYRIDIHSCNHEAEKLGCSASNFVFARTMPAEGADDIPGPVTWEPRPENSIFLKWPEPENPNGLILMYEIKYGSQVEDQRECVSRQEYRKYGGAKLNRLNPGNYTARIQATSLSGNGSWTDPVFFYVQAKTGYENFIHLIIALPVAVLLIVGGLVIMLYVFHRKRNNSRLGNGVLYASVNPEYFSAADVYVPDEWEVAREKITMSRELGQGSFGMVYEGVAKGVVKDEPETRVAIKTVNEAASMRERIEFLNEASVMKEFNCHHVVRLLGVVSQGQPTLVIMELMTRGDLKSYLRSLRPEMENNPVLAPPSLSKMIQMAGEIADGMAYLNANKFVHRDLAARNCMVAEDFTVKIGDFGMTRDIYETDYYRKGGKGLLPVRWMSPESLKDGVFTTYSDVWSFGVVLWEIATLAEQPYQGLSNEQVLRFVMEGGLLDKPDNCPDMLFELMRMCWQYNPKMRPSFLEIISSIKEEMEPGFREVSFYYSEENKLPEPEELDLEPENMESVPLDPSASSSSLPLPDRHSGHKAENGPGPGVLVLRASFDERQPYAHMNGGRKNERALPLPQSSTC
T1 sequence (P06213 28-1382): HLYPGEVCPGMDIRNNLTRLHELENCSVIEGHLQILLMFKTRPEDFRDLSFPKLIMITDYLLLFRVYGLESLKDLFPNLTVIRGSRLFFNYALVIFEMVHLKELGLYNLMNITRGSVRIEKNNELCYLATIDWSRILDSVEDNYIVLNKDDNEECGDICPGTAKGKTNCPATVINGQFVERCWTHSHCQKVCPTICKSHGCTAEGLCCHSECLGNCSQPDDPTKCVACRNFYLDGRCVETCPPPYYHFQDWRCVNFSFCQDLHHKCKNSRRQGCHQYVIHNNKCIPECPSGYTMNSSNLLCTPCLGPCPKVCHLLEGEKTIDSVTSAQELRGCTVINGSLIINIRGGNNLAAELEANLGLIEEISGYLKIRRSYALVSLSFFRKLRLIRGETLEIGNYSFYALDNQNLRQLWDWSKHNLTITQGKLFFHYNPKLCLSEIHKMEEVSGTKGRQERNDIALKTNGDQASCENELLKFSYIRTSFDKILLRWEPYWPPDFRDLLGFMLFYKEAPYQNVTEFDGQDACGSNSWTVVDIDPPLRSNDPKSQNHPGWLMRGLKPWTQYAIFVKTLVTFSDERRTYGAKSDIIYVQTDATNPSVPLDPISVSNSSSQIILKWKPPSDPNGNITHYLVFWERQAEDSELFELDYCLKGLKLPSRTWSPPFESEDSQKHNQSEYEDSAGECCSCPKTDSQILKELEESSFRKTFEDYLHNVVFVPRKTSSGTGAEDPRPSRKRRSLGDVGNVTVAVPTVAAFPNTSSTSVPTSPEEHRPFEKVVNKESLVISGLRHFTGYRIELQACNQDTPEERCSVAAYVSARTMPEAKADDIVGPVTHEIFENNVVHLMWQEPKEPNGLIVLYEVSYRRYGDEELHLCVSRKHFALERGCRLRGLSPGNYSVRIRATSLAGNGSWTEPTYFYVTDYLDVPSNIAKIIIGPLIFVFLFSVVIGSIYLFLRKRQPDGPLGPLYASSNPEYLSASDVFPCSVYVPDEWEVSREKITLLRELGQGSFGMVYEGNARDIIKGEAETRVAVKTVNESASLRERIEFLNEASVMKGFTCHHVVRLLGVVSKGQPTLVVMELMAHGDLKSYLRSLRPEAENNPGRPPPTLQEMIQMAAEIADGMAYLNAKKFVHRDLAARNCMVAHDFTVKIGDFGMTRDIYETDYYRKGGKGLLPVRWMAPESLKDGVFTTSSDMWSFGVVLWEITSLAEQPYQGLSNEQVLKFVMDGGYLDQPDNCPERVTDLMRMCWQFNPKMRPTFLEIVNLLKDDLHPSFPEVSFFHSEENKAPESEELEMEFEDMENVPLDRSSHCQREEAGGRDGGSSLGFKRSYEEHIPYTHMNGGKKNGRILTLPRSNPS
Sequence of TRKC (NTRK3) (Q16288 32-839): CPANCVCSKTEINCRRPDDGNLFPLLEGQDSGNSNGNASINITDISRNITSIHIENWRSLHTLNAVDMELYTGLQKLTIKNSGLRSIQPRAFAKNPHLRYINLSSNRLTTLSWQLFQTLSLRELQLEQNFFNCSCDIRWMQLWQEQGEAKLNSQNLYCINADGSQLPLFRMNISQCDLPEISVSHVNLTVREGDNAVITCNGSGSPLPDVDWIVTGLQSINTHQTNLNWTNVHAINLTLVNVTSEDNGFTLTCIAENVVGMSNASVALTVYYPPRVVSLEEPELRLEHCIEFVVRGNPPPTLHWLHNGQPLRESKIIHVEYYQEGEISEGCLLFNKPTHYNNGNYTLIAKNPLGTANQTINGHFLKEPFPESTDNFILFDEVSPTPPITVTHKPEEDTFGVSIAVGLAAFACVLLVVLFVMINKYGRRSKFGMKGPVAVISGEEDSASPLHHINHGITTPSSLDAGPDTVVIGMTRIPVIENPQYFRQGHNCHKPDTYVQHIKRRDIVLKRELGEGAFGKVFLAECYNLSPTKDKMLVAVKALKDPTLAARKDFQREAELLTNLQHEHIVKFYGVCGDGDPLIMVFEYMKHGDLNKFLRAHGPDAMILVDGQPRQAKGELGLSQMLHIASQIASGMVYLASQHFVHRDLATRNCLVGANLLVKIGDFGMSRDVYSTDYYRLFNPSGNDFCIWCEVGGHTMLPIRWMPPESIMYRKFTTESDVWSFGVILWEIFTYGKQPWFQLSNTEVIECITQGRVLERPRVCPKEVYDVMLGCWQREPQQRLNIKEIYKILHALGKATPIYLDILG

inhibition at 0.03 µM (IR; activated IR, 30 nM, average, read-out: % Inh @ 30 nM Avg): 76%
IC50 (IR; activated IR, read-out: IC50): 8.3e-09 M and 1.2e-08 M
IC50 (HT-29; HT-29, colon adenocarcinoma, 72 h incubation, Cell Titer-Glo): 0.01 µM
IC50 (A549; [1]): < 1 µM
IC50 (COLO 205; [2]): 0.1 µM
IC50 (HCT-116): < 10 µM
IC50 (SW-620; [1]): < 1 µM
IC50 (BT-20): < 10 µM
IC50 (LNCaP): 0.1 µM
IC50 (MCF-7): < 1 µM
IC50 (OVCAR-3): < 1 µM
inhibition at 0.03 µM (IGF1R; activated IGF-1R, 30 nM, average, read-out: % Inh @ 30 nM Avg): 66%
IC50 (IGF1R; [3]): 1.3e-08 M and 1.7e-08 M
inhibition of AXL in panel of 11 kinases (AXL; 0.01 μM): strongly inhibited
inhibition of FAK2 in panel of 11 kinases (FAK2(PTK2b)): strongly inhibited
inhibition of TrkB in panel of 11 kinases (NTRK2 (TRKB); 0.01 μM): strongly inhibited
inhibition of TrkC in panel of 11 kinases (TRKC (NTRK3); 0.01 μM): strongly inhibited
SMILES: O=C(Nc1ccc(F)nc1)C1CCN1c1nc2c(c(Nc3cc(C4CC4)[nH]n3)n1)CCC2 (racemic) [Compound 5, 1-(4-(5-cyclopropyl-1H-pyrazol-3-ylamino)-6,7-dihydro-5H-cyclopenta[d]pyrimidin-2-yl)-N-(6-fluoropyridin-3-yl)azetidine-2-carboxamide]
IC50 (MDA MB 175): 1 µM
IC50 (MDA MB 231): < 10 µM

Hill Slope N1 (IR; IR, ATP 50 μM, run N1): 1.34
IC50 (IR; IR, ATP 50 μM, run N1, read-out: IC50 (M) N1): 5.51e-09 M
Hill Slope N2 (IR; IR, ATP 50 μM, run N2): 1.13
IC50 (IR; IR, ATP 50 μM, run N2, read-out: IC50 (M) N2): 4.07e-09 M
IC50 (IR; activated IR, read-out: IC50): 5.7e-09 M
IC50 (HT-29; HT-29, colon cancer, 72 h): 0.5 µM
IC50 (A549; 72 h): 1 µM
IC50 (A549; [1]): < 1 µM
IC50 (COLO 205; [2]): < 0.1 µM
IC50 (COLO 205; COLO-205, colon adenocarcinoma, 72 h): < 0.01 µM
IC50 (SW-620; 72 h): 0.1 µM
IC50 (SW-620; [1]): < 1 µM
IC50 (BT-20): 1 µM
IC50 (LNCaP): < 1 µM
IC50 (MCF-7): 1 µM
IC50 (OVCAR-3): < 1 µM
Hill Slope N1 (IGF1R; IGF-1R, ATP 100 μM, run N1): 1.195
IC50 (IGF1R; IGF-1R, ATP 100 μM, run N1, read-out: IC50 (M) N1): 7.24e-09 M
Hill Slope N2 (IGF1R; IGF-1R, ATP 100 μM, run N2): 1.384
IC50 (IGF1R; IGF-1R, ATP 100 μM, run N2, read-out: IC50 (M) N2): 5.29e-09 M
IC50 (IGF1R; [3]): 6.1e-09 M
inhibition at 0.01 µM (AXL; [4]): 40 to 59%
inhibition at 0.1 µM (AXL; [5]): > 60%
inhibition at 1 µM (AXL; read-out: Average % Inh @ 1 μM): > 60%
inhibition at 0.01 µM (NTRK2 (TRKB); [4]): > 60%
inhibition at 0.1 µM (NTRK2 (TRKB); [5]): > 60%
inhibition at 1 µM (NTRK2 (TRKB); read-out: Average % Inh @ 1 μM): > 60%
inhibition at 0.01 µM (TRKC (NTRK3); [4]): > 60%
inhibition at 0.1 µM (TRKC (NTRK3); [5]): > 60%
inhibition at 1 µM (TRKC (NTRK3); read-out: Average % Inh @ 1 μM): > 60%
SMILES: O=C(Nc1ccc(F)nc1)C1CCCN1c1nc2c(c(Nc3cc(C4CC4)[nH]n3)n1)CCC2 (single isomer, unassigned) [Compound 2b, 1-(4-(5-cyclopropyl-1H-pyrazol-3-ylamino)-6,7-dihydro-5H-cyclopenta[d]pyrimidin-2-yl)-N-(6-fluoropyridin-3-yl)pyrrolidine-2-carboxamide]
IC50 (MDA MB 175): < 10 µM
IC50 (MDA MB 231): 1 µM
